Among the test systems are LOX IMVI melanoma; EKVX NSCLC; SR leukemia; DU-145 prostate; HCT-116 colon; NCI-H23 lung; SNB-19 CNS; SK-MEL-5 melanoma; A498 renal; M14 melanoma.
Test in all cases: NCI-60 cell line screen, 48 h

The text below walks through data of PubChem BioAssay (NCI).

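Each compound was tested at five concentrations against cells in 96-well plates for 48 hours. TGI: total growth inhibition.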

In the case of `O=c1c2cc(S(=O)(=O)O)ccc2nc(COc2ccc(Oc3ccc(Cl)cc3Cl)cc2)n1-c1ccc(Cl)cc1Oc1c(Cl)cccc1Cl`, the TGI with LOX IMVI melanoma is 32.2 µM; with EKVX NSCLC it was 40.4 µM; in the experiment with SR leukemia it was 96.7 µM; in the experiment with DU-145 prostate, greater than 100 µM; in the experiment with HCT-116 colon, 67.8 µM; with NCI-H23 lung it was 57.1 µM. Also, the TGI in the experiment on SNB-19 CNS was greater than 100 µM; with SK-MEL-5 melanoma, 32.1 µM; in the experiment with A498 renal, 67.3 µM; with M14 melanoma, 55.8 µM.
Take `Cc1ccccc1N=Nc1ccc(N/N=C2/CCCNC2=O)c(C)c1`: the TGI in the experiment with LOX IMVI melanoma, with EKVX NSCLC, with SR leukemia, in the experiment on DU-145 prostate, with HCT-116 colon and in the experiment with NCI-H23 lung was greater than 100 µM in each case. Moreover, the TGI in the experiment on SNB-19 CNS, in the experiment on SK-MEL-5 melanoma, with A498 renal and with M14 melanoma was greater than 100 µM in each case.
Consider `COc1cc(O)c2c(c1)OCC(Cc1ccc(O)cc1)C2=O` (stereo unspecified), for which the TGI with LOX IMVI melanoma, in the experiment with SR leukemia, with DU-145 prostate, in the experiment with HCT-116 colon, in the experiment with NCI-H23 lung and in the experiment on SNB-19 CNS was greater than 100 µM each time. The TGI in the experiment with SK-MEL-5 melanoma, in the experiment on A498 renal and in the experiment with M14 melanoma was greater than 100 µM in each case.
For `Cc1ccc(C)c(COCCOCn2ccc(N)nc2=O)c1`, the TGI with LOX IMVI melanoma, in the experiment with EKVX NSCLC, in the experiment with SR leukemia, in the experiment with DU-145 prostate, in the experiment on HCT-116 colon and in the experiment on NCI-H23 lung was greater than 100 µM each time. Moreover, the TGI with SNB-19 CNS, in the experiment on A498 renal and with M14 melanoma was greater than 100 µM throughout.
For the compound `COC1(OC)CC(CO)(CNc2nc(N)nc(Cl)c2/C=N\O)C1`, the TGI in the experiment with LOX IMVI melanoma, with EKVX NSCLC, in the experiment with SR leukemia, in the experiment with DU-145 prostate, with HCT-116 colon and in the experiment on NCI-H23 lung was greater than 100 µM in each case. The TGI is greater than 100 µM in the experiment with SNB-19 CNS, greater than 100 µM with SK-MEL-5 melanoma and 98.5 µM in the experiment with A498 renal.
On to `O=c1[nH]nc(Cc2ccccc2)[nH]1`, for which the TGI in the experiment with LOX IMVI melanoma, with EKVX NSCLC, in the experiment on SR leukemia, in the experiment on DU-145 prostate, with HCT-116 colon and in the experiment on NCI-H23 lung was greater than 100 µM in each case. Moreover, the TGI with SNB-19 CNS, in the experiment with SK-MEL-5 melanoma, with A498 renal and in the experiment with M14 melanoma was greater than 100 µM each time.
With `NNc1nncc2n[nH]nc12`, the TGI with EKVX NSCLC, with SR leukemia, in the experiment with DU-145 prostate, in the experiment with HCT-116 colon, with NCI-H23 lung and with SNB-19 CNS was greater than 100 µM each time. In addition, the TGI in the experiment with A498 renal and in the experiment with M14 melanoma was greater than 100 µM in each case.
For `CC(C)=CC(=O)C[C@H]1C(=O)O[C@@H]2C[C@H]3C(C)=CC(=O)[C@@H](O)[C@]3(C)[C@H]3[C@@]4(O)OC[C@]32[C@@H]1[C@@H](C)[C@H]4O`, the TGI in the experiment with EKVX NSCLC is 4.25 µM; with SR leukemia it was greater than 100 µM; with DU-145 prostate it was 0.12 µM; in the experiment with HCT-116 colon, 0.114 µM; with NCI-H23 lung, 0.042 µM; with SK-MEL-5 melanoma it was 0.0612 µM. Besides, the TGI with A498 renal worked out at 1.15 µM; with M14 melanoma it was 0.115 µM.
On to `C=C1CC[C@H](O)C(C)(C)[C@@H]1CC/C(C)=C/CC/C=C(\C)CC/C=C(\C)CCC=C(C)C`, for which the TGI in the experiment with LOX IMVI melanoma, with EKVX NSCLC, in the experiment with SR leukemia, with DU-145 prostate, in the experiment on HCT-116 colon and with NCI-H23 lung was greater than 100 µM each time. Besides, the TGI in the experiment with SNB-19 CNS, with SK-MEL-5 melanoma, with A498 renal and with M14 melanoma was greater than 100 µM in each case.
`CSC1=N/C(=C\c2ccccc2)C(=O)N1CN1CCCCC1`: the TGI with LOX IMVI melanoma, in the experiment with EKVX NSCLC, in the experiment on SR leukemia, in the experiment on DU-145 prostate, in the experiment with HCT-116 colon and in the experiment with NCI-H23 lung was greater than 100 µM throughout. Also, the TGI in the experiment with SNB-19 CNS, with SK-MEL-5 melanoma, with A498 renal and in the experiment on M14 melanoma was greater than 100 µM each time.
For `CC1ON2CCCC2[C@H]1C(=O)N1C2CC3CCC2(CS1(=O)=O)C3(C)C` (stereo partly specified), the TGI in the experiment on LOX IMVI melanoma, in the experiment with EKVX NSCLC, in the experiment on SR leukemia, with DU-145 prostate, with HCT-116 colon and with NCI-H23 lung was greater than 100 µM in each case. The TGI in the experiment with SK-MEL-5 melanoma, in the experiment on A498 renal and in the experiment on M14 melanoma was greater than 100 µM throughout.
With `CCn1c(SCC(=O)NNC(=S)Nc2ccc(C)cc2)nc2ccccc2c1=O`, the TGI with LOX IMVI melanoma, with EKVX NSCLC, in the experiment on SR leukemia, with DU-145 prostate, in the experiment on HCT-116 colon and in the experiment with NCI-H23 lung was greater than 100 µM each time. Also, the TGI with SNB-19 CNS, in the experiment with SK-MEL-5 melanoma, with A498 renal and in the experiment with M14 melanoma was greater than 100 µM in each case.
As for `COC(=O)C(COC(C)=O)NC(=O)/C=C/c1ccc(O)c(OC(C)=O)c1` (stereo unspecified), the TGI in the experiment with LOX IMVI melanoma, with EKVX NSCLC, in the experiment with SR leukemia, with DU-145 prostate, with HCT-116 colon and with NCI-H23 lung was greater than 100 µM throughout. Besides, the TGI in the experiment on SNB-19 CNS, in the experiment on SK-MEL-5 melanoma, in the experiment on A498 renal and in the experiment on M14 melanoma was greater than 100 µM throughout.
Turning to `O=c1[nH]c(Nc2nc3ccccc3[nH]2)nc2c1CCC2`, the TGI with LOX IMVI melanoma, in the experiment on SR leukemia, with DU-145 prostate, in the experiment on HCT-116 colon, in the experiment on NCI-H23 lung and in the experiment with SNB-19 CNS was greater than 100 µM throughout. Besides, the TGI in the experiment on SK-MEL-5 melanoma, in the experiment on A498 renal and in the experiment with M14 melanoma was greater than 100 µM in each case.
